Results taken from ChEMBL document CHEMBL3885881, “DrugMatrix”.

Species: Rattus norvegicus
Test: DrugMatrix - Regimen: Daily Repeat
Assay type: toxicity, organism-based, Sprague-Dawley
Design: regimen Daily Repeat, gender Male, age 6-8 weeks
Settings: in vivo, po, route oral GAVAGE, vehicle .5 % CMC; for ABSOLUTE BASOPHIL / ABSOLUTE EOSINOPHIL / ABSOLUTE LYMPHOCYTE / ABSOLUTE MONOCYTE / ABSOLUTE SEGMENTED NEUTROPHIL / BASOPHIL / EOSINOPHIL / ERYTHROCYTE COUNT / HEMATOCRIT / HEMOGLOBIN / LEUKOCYTE COUNT / LYMPHOCYTE / MEAN CORPUSCULAR HEMOGLOBIN / MEAN CORPUSCULAR HEMOGLOBIN CONCENTRATION / MEAN CORPUSCULAR VOLUME / MONOCYTE / NEUTROPHIL / NUCLEATED RED BLOOD CELLS / PLATELET COUNT: tissue Blood; for ALANINE AMINOTRANSFERASE / ALBUMIN / ALKALINE PHOSPHATASE / ASPARTATE AMINOTRANSFERASE / BLOOD UREA NITROGEN / CARBON DIOXIDE / CHLORIDE / CHOLESTEROL / CREATINE PHOSPHOKINASE / CREATININE / LACTATE DEHYDROGENASE / LIPASE / PHOSPHORUS / SODIUM / TOTAL BILIRUBIN / TOTAL PROTEIN / URIC ACID: tissue Plasma
[1] = 29 mg/kg, 72 h, dose level Low, time 3 day
[2] = 29 mg/kg, 120 h, dose level Low, time 5 day
[3] = 1169 mg/kg, 72 h, dose level High, time 3 day
[4] = 1169 mg/kg, 120 h, dose level High, time 5 day

## Nc1nc(O)c2ncn(COC(CO)CO)c2n1 [GANCICLOVIR]
[1]
  ABSOLUTE BASOPHIL: 0 CELLS/uL
  ABSOLUTE EOSINOPHIL: 152 CELLS/uL
  ABSOLUTE LYMPHOCYTE: 12965 CELLS/uL
  ABSOLUTE MONOCYTE: 505.67 CELLS/uL
  ABSOLUTE SEGMENTED NEUTROPHIL: 1544 CELLS/uL
  BASOPHIL: 0%
  EOSINOPHIL: 1%
  ERYTHROCYTE COUNT: 5.64 x10E6/uL
  HEMATOCRIT: 35.17%
  HEMOGLOBIN: 13.17 G/DL
  LEUKOCYTE COUNT: 15.17 x10E3/uL
  LYMPHOCYTE: 85.67%
  MEAN CORPUSCULAR HEMOGLOBIN: 23.37 pg
  MEAN CORPUSCULAR HEMOGLOBIN CONCENTRATION: 37.47 G/DL
  MEAN CORPUSCULAR VOLUME: 62.37 fL
  MONOCYTE: 3.33%
  NEUTROPHIL: 10%
  NUCLEATED RED BLOOD CELLS: 0 /100WBC
  PLATELET COUNT: 1360 x10E3/uL
  ALANINE AMINOTRANSFERASE: 48 u/L
  ALBUMIN: 4.17 G/DL
  ALKALINE PHOSPHATASE: 319.67 u/L
  ASPARTATE AMINOTRANSFERASE: 96 u/L
  BLOOD UREA NITROGEN: 18 mg/dL
  CARBON DIOXIDE: 24 mmol/L
  CHLORIDE: 103 MEQ/L
  CHOLESTEROL: 67.67 mg/dL
  CREATINE PHOSPHOKINASE: 635.33 u/L
  CREATININE: 0.21 mg/dL
  LACTATE DEHYDROGENASE: 646.33 u/L
  LIPASE: 8.67 u/L
  PHOSPHORUS: 14.2 mg/dL
  SODIUM: 145.5 MEQ/L
  TOTAL BILIRUBIN: 0.2 mg/dL
  TOTAL PROTEIN: 5.9 G/DL
  URIC ACID: 2.23 mg/dL
[2]
  ABSOLUTE BASOPHIL: 0 CELLS/uL
  ABSOLUTE EOSINOPHIL: 86.67 CELLS/uL
  ABSOLUTE LYMPHOCYTE: 11979.33 CELLS/uL
  ABSOLUTE MONOCYTE: 137.33 CELLS/uL
  ABSOLUTE SEGMENTED NEUTROPHIL: 1530 CELLS/uL
  BASOPHIL: 0%
  EOSINOPHIL: 0.67%
  ERYTHROCYTE COUNT: 5.69 x10E6/uL
  HEMATOCRIT: 35.37%
  HEMOGLOBIN: 13.23 G/DL
  LEUKOCYTE COUNT: 13.73 x10E3/uL
  LYMPHOCYTE: 87%
  MEAN CORPUSCULAR HEMOGLOBIN: 23.27 pg
  MEAN CORPUSCULAR HEMOGLOBIN CONCENTRATION: 37.47 G/DL
  MEAN CORPUSCULAR VOLUME: 62.13 fL
  MONOCYTE: 1%
  NEUTROPHIL: 11.33%
  NUCLEATED RED BLOOD CELLS: 0 /100WBC
  PLATELET COUNT: 1168 x10E3/uL
  ALANINE AMINOTRANSFERASE: 47.67 u/L
  ALBUMIN: 4.2 G/DL
  ALKALINE PHOSPHATASE: 323 u/L
  ASPARTATE AMINOTRANSFERASE: 91.67 u/L
  BLOOD UREA NITROGEN: 19.33 mg/dL
  CARBON DIOXIDE: 25.33 mmol/L
  CHLORIDE: 106.33 MEQ/L
  CHOLESTEROL: 74.67 mg/dL
  CREATINE PHOSPHOKINASE: 428.33 u/L
  CREATININE: 0.15 mg/dL
  LACTATE DEHYDROGENASE: 720 u/L
  LIPASE: 8.67 u/L
  PHOSPHORUS: 11.4 mg/dL
  SODIUM: 145.9 MEQ/L
  TOTAL BILIRUBIN: 0.13 mg/dL
  TOTAL PROTEIN: 5.77 G/DL
  URIC ACID: 0.83 mg/dL
[3]
  ABSOLUTE BASOPHIL: 0 CELLS/uL
  ABSOLUTE EOSINOPHIL: 180.33 CELLS/uL
  ABSOLUTE LYMPHOCYTE: 12632.33 CELLS/uL
  ABSOLUTE MONOCYTE: 432 CELLS/uL
  ABSOLUTE SEGMENTED NEUTROPHIL: 1155.33 CELLS/uL
  BASOPHIL: 0%
  EOSINOPHIL: 1.67%
  ERYTHROCYTE COUNT: 5.52 x10E6/uL
  HEMATOCRIT: 33.9%
  HEMOGLOBIN: 12.9 G/DL
  LEUKOCYTE COUNT: 14.4 x10E3/uL
  LYMPHOCYTE: 87%
  MEAN CORPUSCULAR HEMOGLOBIN: 23.43 pg
  MEAN CORPUSCULAR HEMOGLOBIN CONCENTRATION: 38.07 G/DL
  MEAN CORPUSCULAR VOLUME: 61.57 fL
  MONOCYTE: 3%
  NEUTROPHIL: 8.33%
  NUCLEATED RED BLOOD CELLS: 0.33 /100WBC
  PLATELET COUNT: 1439 x10E3/uL
  ALANINE AMINOTRANSFERASE: 45.33 u/L
  ALBUMIN: 4.3 G/DL
  ALKALINE PHOSPHATASE: 313.33 u/L
  ASPARTATE AMINOTRANSFERASE: 76 u/L
  BLOOD UREA NITROGEN: 19 mg/dL
  CARBON DIOXIDE: 27.33 mmol/L
  CHLORIDE: 103.67 MEQ/L
  CHOLESTEROL: 79.67 mg/dL
  CREATINE PHOSPHOKINASE: 222.33 u/L
  CREATININE: 0.23 mg/dL
  LACTATE DEHYDROGENASE: 239 u/L
  LIPASE: 9 u/L
  PHOSPHORUS: 12.3 mg/dL
  SODIUM: 145.57 MEQ/L
  TOTAL BILIRUBIN: 0.2 mg/dL
  TOTAL PROTEIN: 5.93 G/DL
  URIC ACID: 1.27 mg/dL
[4]
  ABSOLUTE BASOPHIL: 0 CELLS/uL
  ABSOLUTE EOSINOPHIL: 164.33 CELLS/uL
  ABSOLUTE LYMPHOCYTE: 13318 CELLS/uL
  ABSOLUTE MONOCYTE: 365.67 CELLS/uL
  ABSOLUTE SEGMENTED NEUTROPHIL: 1652 CELLS/uL
  BASOPHIL: 0%
  EOSINOPHIL: 1%
  ERYTHROCYTE COUNT: 5.49 x10E6/uL
  HEMATOCRIT: 34.33%
  HEMOGLOBIN: 13.13 G/DL
  LEUKOCYTE COUNT: 15.5 x10E3/uL
  LYMPHOCYTE: 86%
  MEAN CORPUSCULAR HEMOGLOBIN: 23.93 pg
  MEAN CORPUSCULAR HEMOGLOBIN CONCENTRATION: 38.27 G/DL
  MEAN CORPUSCULAR VOLUME: 62.6 fL
  MONOCYTE: 2.33%
  NEUTROPHIL: 10.67%
  NUCLEATED RED BLOOD CELLS: 0.33 /100WBC
  PLATELET COUNT: 1216.67 x10E3/uL
  ALANINE AMINOTRANSFERASE: 42.33 u/L
  ALBUMIN: 4.2 G/DL
  ALKALINE PHOSPHATASE: 345.33 u/L
  ASPARTATE AMINOTRANSFERASE: 78.67 u/L
  BLOOD UREA NITROGEN: 19.67 mg/dL
  CARBON DIOXIDE: 29.33 mmol/L
  CHLORIDE: 102.33 MEQ/L
  CHOLESTEROL: 65.33 mg/dL
  CREATINE PHOSPHOKINASE: 220 u/L
  CREATININE: 0.18 mg/dL
  LACTATE DEHYDROGENASE: 181 u/L
  LIPASE: 8.67 u/L
  PHOSPHORUS: 11.73 mg/dL
  SODIUM: 145.77 MEQ/L
  TOTAL BILIRUBIN: 0.13 mg/dL
  TOTAL PROTEIN: 5.9 G/DL
  URIC ACID: 1.43 mg/dL
